According to article PMC11555678, “Improved Broad Spectrum Antifungal Drug Synergies with Cryptomycin, a Cdc50-Inspired Antifungal Peptide” (ACS Infectious Diseases, 2024):
≈ marks a conversion by molar mass, not a printed value. Read-outs that look alike come from different tables or passages of the source.

Assays:
A. fumigatus AF293 = experiment: Drug synergy (MIC in peptide-supplemented media); assay type: cell-based, Aspergillus fumigatus; conditions: RPMI1640, 37 °C, 48 h; for MIC of antifungal in combination with KKOO-NH2: MIC = well with <20% growth
Description: (§1) All microdilution assays with fungi were carried out in accordance with CLSI protocols from M27 for yeasts and M38 for filamentous fungi, respectively, unless otherwise specified.[64],[65] Briefly, 96-well plates were charged with RPMI1640 media, with operating volume in the first column, 200 μL, and half operating volume, 100 μL, in the remaining wells. Drug stock solution in DMSO was aliquoted into the first well in each row. Half of the volume in the dosed well was serially diluted 2-fold until column 11. Column 11 was used as the negative growth control, and column 12 was used as the positive growth control. ON yeast cultures in YPD were washed twice in DD-H2O, resuspended in PBS, and adjusted to 5000 cfu/mL in RPMI. The 96-well plate was inoculated with 100 μL aliquots of cell suspension per well. Plates were incubated at 37 °C for 2 days.
To assess drug synergy, the initial media charged to the plate contained the peptide at twice the final operating concentration; the remaining processing steps were identical to the MIC experiment. Upon addition of 100 μL of inoculant, the final operating concentration was achieved. Control MIC plates were prepared alongside drug synergy plates to account for the day-to-day variability in any individual MIC. FIC index is computed using eq 1. All MIC assays and drug synergy assays were completed with two technical replicates per 96-well plate and a minimum of two biological replicates per drug combination. If a difference in MIC between the two technical replicates on the plate were observed, only the higher concentration was reported as the MIC to reduce the possibility of type 1 error (false positive) [drawing 1] 1

C. neoformans H99 = conditions: Cn wild-type, previous study; cited from earlier work
Cn H99 = experiment: microbe, parasite or virus in culture; assay type: cell-based, Cryptococcus neoformans; conditions: Cryptococcus neoformans, H99, 48 h, 37 °C, 48 h, read-out: MIC
Description: (§2) Previous studies have shown that modifying microbiological media with salts such as CaCl2 can have a drastic effect on the growth of fungi and their responses to antifungals.[19],[35] In the case of CaCl2, the divalent cation, Ca^2+, is involved in fungal cell stress response. To understand how the peptide activity may involve calcium and stress response, the MICs of KKOO, KKOO-NH2, FLC, and CAS were assessed as a function of the calcium concentration in liquid YPD media. It was observed that calcium enrichment completely desensitized the wild-type strain to KKOO and KKOO-NH2, Tables 7 and 8, respectively. Effects of calcium enrichment on the susceptibility of Cryptococcus to CAS similar to literature values were recorded, Supporting Information, Table S7.[35]
(§3) In order to control for the effects of enriching YPD with a divalent cation, MICs and ROS production were also measured as a function of the MgCl2 supplement at the same millimolar concentrations of cation as in the CaCl2-modified experiments. […] No peptide susceptibility changes were observed against Cn cdc50Δ in magnesium-enriched media, Table S9. ROS production in H99 induced by peptide exposure was inhibited after 30 min of treatment in the magnesium-enriched condition, similar to the levels observed in the calcium-enriched media at 16 μg/mL KKOO-NH2, Figure S1. […] The link between peptide activity and calcium homeostasis may be vital in understanding precisely how the peptide kills fungal cells and requires more research to elucidate.
as §1

Cn cdc50Δ = experiment: microbe, parasite or virus in culture; assay type: cell-based, Cryptococcus neoformans; conditions: 48 h, 37 °C, 48 h
Description: as §2, §3, §1

[1] = +0 μg/mL KKOO (control), CAS: paradoxical growth, MIC = <20% growth
[2] = +0 μg/mL KKOO-NH2 (control), CAS: paradoxical growth
[3] = +1 μg/mL KKOO-NH2, CAS: paradoxical growth
[4] = +1 μg/mL KKOO, CAS: paradoxical growth, MIC = <20% growth
[5] = +2 μg/mL KKOO-NH2, CAS: paradoxical growth
[6] = +2 μg/mL KKOO, CAS: paradoxical growth, MIC = <20% growth
[7] = +4 μg/mL KKOO-NH2, CAS: paradoxical growth
[8] = +4 μg/mL KKOO, CAS: paradoxical growth, MIC = <20% growth
[9] = +8 μg/mL KKOO-NH2, CAS: paradoxical growth
[10] = Cryptococcus neoformans, YPD + 0 mM Ca2+
[11] = Cryptococcus neoformans, YPD + 2.5 mM Ca2+
[12] = Cryptococcus neoformans, YPD + 5 mM Ca2+
[13] = Cryptococcus neoformans, YPD + 10 mM Ca2+
[14] = Cryptococcus neoformans, YPD + 20 mM Ca2+

SMILES	MIC of antifungal in combination with KKOO (A. fumigatus AF293; [1])	MIC of antifungal in combination with KKOO-NH2 (A. fumigatus AF293; [2])	MIC of antifungal in combination with KKOO-NH2 (A. fumigatus AF293; [3])	MIC of antifungal in combination with KKOO (A. fumigatus AF293; [4])	MIC of antifungal in combination with KKOO-NH2 (A. fumigatus AF293; [5])	MIC of antifungal in combination with KKOO (A. fumigatus AF293; [6])	MIC of antifungal in combination with KKOO-NH2 (A. fumigatus AF293; [7])	MIC of antifungal in combination with KKOO (A. fumigatus AF293; [8])	MIC of antifungal in combination with KKOO-NH2 (A. fumigatus AF293; [9])	MIC (Cn H99; YPD + 0 mM Ca2+)	MIC (Cn H99; YPD + 0 mM Mg2+)	MIC (Cn H99; YPD + 2.5 mM Ca2+)	MIC (Cn H99; YPD + 2.5 mM Mg2+)	MIC (Cn H99; YPD + 5 mM Ca2+)	MIC (Cn H99; YPD + 5 mM Mg2+)	MIC (Cn H99; YPD + 10 mM Ca2+)	MIC (Cn H99; YPD + 10 mM Mg2+)	MIC (Cn H99; YPD + 20 mM Mg2+)	MIC (Cn cdc50Δ; [10])	MIC (Cn cdc50Δ; [11])	other results
C[C@@H]1[C@H](O)[C@@H](C)/C=C/C=C/C=C/C=C/C=C/C=C/C=C/[C@H](O[C@@H]2O[C@H](C)[C@@H](O)[C@H](N)[C@@H]2O)C[C@@H]2O[C@](O)(C[C@@H](O)C[C@@H](O)[C@H](O)CC[C@@H](O)C[C@@H](O)CC(=O)O[C@H]1C)C[C@H](O)[C@H]2C(=O)O [AMB, amphotericin B]	1 µg/mL	1 µg/mL	0.5 µg/mL	0.25 µg/mL	0.25 µg/mL	0.25 µg/mL	0.5 µg/mL	0.25 µg/mL	0.5 µg/mL	–	–	–	–	–	–	–	–	–	–	–	–
CC[C@H](C)C[C@H](C)CCCCCCCCC(=O)N[C@H]1C[C@@H](O)[C@@H](NCCN)NC(=O)[C@@H]2[C@@H](O)CCN2C(=O)[C@H]([C@H](O)CCN)NC(=O)[C@H]([C@H](O)[C@@H](O)c2ccc(O)cc2)NC(=O)[C@@H]2C[C@@H](O)CN2C(=O)[C@H]([C@@H](C)O)NC1=O [CAS, caspofungin]	0.125 µg/mL	0.125 µg/mL	0.031 µg/mL	0.062 µg/mL	0.031 µg/mL	0.031 µg/mL	0.031 µg/mL	0.031 µg/mL	0.031 µg/mL	8 µg/mL	8 µg/mL	16 µg/mL	16 µg/mL	32 µg/mL	16 µg/mL	64 µg/mL	32 µg/mL	64 µg/mL	4 µg/mL	8 µg/mL	MIC (C. neoformans H99): 16 µg/mL (≈ 14.6 µM); MIC (Cn cdc50Δ; [12]): 16 µg/mL; MIC (Cn cdc50Δ; [13]): 32 µg/mL; MIC (Cn cdc50Δ; [14]): 8 µg/mL; MIC (Cn cdc50Δ; YPD + 0 mM Mg2+, unit inferred): 4 µg/mL; MIC (Cn cdc50Δ; YPD + 2.5 mM Mg2+, unit inferred): 8 µg/mL; MIC (Cn cdc50Δ; YPD + 5 mM Mg2+, unit inferred): 8 µg/mL; MIC (Cn cdc50Δ; YPD + 10 mM Mg2+, unit inferred): 8 µg/mL; MIC (Cn cdc50Δ; YPD + 20 mM Mg2+, unit inferred): 8 µg/mL
OC(Cn1cncn1)(Cn1cncn1)c1ccc(F)cc1F [FLC, fluconazole]	> 128 µg/mL	>128 µg/mL	>128 µg/mL	> 128 µg/mL	>128 µg/mL	> 128 µg/mL	>128 µg/mL	> 128 µg/mL	>128 µg/mL	8 µg/mL	4 µg/mL	8 µg/mL	4 µg/mL	8 µg/mL	2 µg/mL	8 µg/mL	2 µg/mL	2 µg/mL	0.5 µg/mL	0.5 µg/mL	MIC (Cn H99; YPD + 20 mM Ca2+): 8 µg/mL; MIC (Cn cdc50Δ; [12]): 0.5 µg/mL; MIC (Cn cdc50Δ; [13]): 0.25 µg/mL; MIC (Cn cdc50Δ; [14]): 0.25 µg/mL; MIC (Cn cdc50Δ; YPD + 0 mM Mg2+, unit not given): ½; MIC (Cn cdc50Δ; YPD + 2.5 mM Mg2+, unit not given): ¼; MIC (Cn cdc50Δ; YPD + 5 mM Mg2+, unit not given): ¼; MIC (Cn cdc50Δ; YPD + 10 mM Mg2+, unit not given): 1/8; MIC (Cn cdc50Δ; YPD + 20 mM Mg2+, unit not given): 1/16; MIC of antifungal in combination with KKOO (A. fumigatus AF293; +8 μg/mL KKOO): > 128 µg/mL
CCC(C)n1ncn(-c2ccc(N3CCN(c4ccc(OCC5COC(Cn6cncn6)(c6ccc(Cl)cc6Cl)O5)cc4)CC3)cc2)c1=O (centres unmarked) [ITR, itraconazole]	0.125 µg/mL	0.125 µg/mL	0.125 µg/mL	0.125 µg/mL	0.062 µg/mL	0.062 µg/mL	0.062 µg/mL	0.062 µg/mL	0.031 µg/mL	–	–	–	–	–	–	–	–	–	–	–	–
